Tests used:
green foxtail = experiment: Test E green foxtail; format: in vivo, Setaria viridis; settings: Preemergence; for Plant response rating, Green foxtail: 0 to 100 scale where 0 is no effect and 100 is complete control
winter wheat [1] = experiment: Test E winter wheat; format: in vivo, Triticum aestivum; settings: Preemergence; for Plant response rating, Wheat (winter): 0 to 100 scale where 0 is no effect and 100 is complete control
blackgrass [2] = experiment: Test B pre/postemergence blackgrass; format: in vivo, Alopecurus myosuroides
In short: (§1)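 Test chemicals in a non-phytotoxic solvent mixture with surfactant were sprayed preemergence onto planted seeds and postemergence onto plants 2 to 18 cm tall (1- to 4-leaf stage). After twelve to sixteen days in a greenhouse, injury was visually rated against untreated controls from 0 (no effect) to 10 (complete control).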

winter wheat [3] = experiment: Test E winter wheat; format: in vivo, Triticum aestivum; settings: Postemergence; for Plant response rating, Wheat (winter): 0 to 100 scale
Method: […] All plant species were grown using normal greenhouse practices. Crop and weed species include annual bluegrass (Poa annua), blackgrass (Alopecurus myosuroides), black nightshade (Solanum nigra), chickweed (Stellaria media), common poppy (Papaver rhoeas), deadnettle (Lamium amplexicaule), downy brome (Bromus tectorum), field violet (Viola arvensis), galium (Galium aparine), green foxtail (Setaria viridis), Italian ryegrass (Lolium multiflorum), jointed goatgrass (Aegilops cylindrica), kochia (Kochia scoparia), lambsquarters (Chenopodium album), littleseed canarygrass (Phalaris minor), rape (Brassica napus), redroot pigweed (Amaranthus retroflexus), Russian thistle (Salsola kali), scentless chamomile (Matricaria inodora), spring barley (Hordeum vulgare), sugar beet (Beta vulgaris), sunflower (Helianthus annuus), ivyleaf speedwell (Veronica hederaefolia), spring wheat (Triticum aestivum), winter wheat (Triticum aestivum), wild buckwheat (Polygonum convolvulus), wild mustard (Sinapis arvensis), wild oat (Avena fatua), windgrass (Apera spica-venti) and winter barley (Hordeum vulgare).
Treated plants and untreated controls were maintained in a greenhouse for approximately 21 to 28 days, after which all treated plants were compared to untreated controls and visually evaluated. […] A dash response (-) means no test result.

velvetleaf = experiment: Test B pre/postemergence velvetleaf; format: in vivo, Abutilon theophrasti
In short: as §1

soybean = experiment: Test B pre/postemergence soybean; format: in vivo, Glycine max
In short: as §1

Italian ryegrass = experiment: Test E Italian ryegrass; format: in vivo, Lolium multiflorum; settings: Preemergence; for Plant response rating, I. Ryegrass: 0 to 100 scale where 0 is no effect and 100 is complete control
bedstraw = experiment: Test B pre/postemergence bedstraw; format: in vivo, Galium aparine
In short: as §1

wild oat = experiment: Test E wild oat; format: in vivo, Avena fatua; settings: Preemergence; for Plant response rating, Wild oat: 0 to 100 scale where 0 is no effect and 100 is complete control
blackgrass [4] = experiment: Test E blackgrass; format: in vivo, Alopecurus myosuroides; settings: Preemergence; for Plant response rating, Blackgrass: 0 to 100 scale where 0 is no effect and 100 is complete control
winter barley = experiment: Test E winter barley; format: in vivo, Hordeum vulgare; settings: Preemergence; for Plant response rating, Barley (winter): 0 to 100 scale where 0 is no effect and 100 is complete control
[5] = Postemergence, Rate 125 g/ha, scale of 0 to 10 where 0 is no effect and 10 is complete control
[6] = Preemergence, Rate 62 g/ha, scale of 0 to 10 where 0 is no effect and 10 is complete control
[7] = Preemergence, Rate 125 g/ha, 0 is no effect, 10 is complete control
[8] = Preemergence, Rate 250 g/ha, scale 0 to 10, 0 is no effect, 10 is complete control
[9] = Preemergence, Rate 500 g/ha, scale 0 to 10 (0 no effect, 10 complete control)
[10] = Rate 62 g/ha, Postemergence, scale of 0 to 10 where 0 is no effect and 10 is complete control
[11] = Rate 250 g/ha, Postemergence, scale 0 to 10, 0 is no effect, 10 is complete control
[12] = Rate 500 g/ha, Postemergence, scale 0 to 10
[13] = Postemergence, Rate 62 g/ha, scale 0 to 10, 0 is no effect, 10 is complete control
[14] = Postemergence, Rate 250 g/ha, scale of 0 to 10, 0 is no effect, 10 is complete control
[15] = Preemergence, Rate 62 g/ha, scale 0 to 10 (0 no effect, 10 complete control)
[16] = Preemergence, Rate 125 g/ha, scale of 0 to 10 where 0 is no effect and 10 is complete control
[17] = Preemergence, Rate 250 g/ha, scale 0 to 10 (0 no effect, 10 complete control)
[18] = Preemergence, Rate 500 g/ha, scale of 0 to 10 where 0 is no effect and 10 is complete control

SMILES: CC(C)N(C(=O)n1oc(=O)n([C@@H](C)c2ccccc2)c1=O)c1ccc(F)cc1 [Compound 167]
- Green foxtail plant response rating (0 to 100 scale) (green foxtail; Rate 250 g/ha): 60
- Plant response rating, Green foxtail (green foxtail; Rate 500 g/ha): 85
- Plant response rating, Green foxtail (green foxtail; Rate 1000 g/ha): 100
- Wheat (winter) plant response rating (0 to 100 scale) (winter wheat [1]; Rate 250 g/ha): 10
- Plant response rating, Wheat (winter) (winter wheat [1]; Rate 500 g/ha): 20
- Plant response rating, Wheat (winter) (winter wheat [1]; Rate 1000 g/ha): 30
- Blackgrass plant response rating (blackgrass [2]; [5]): 0
- Blackgrass plant response rating (blackgrass [2]; [6]): 0
- Blackgrass plant response rating (0 to 10 scale) (blackgrass [2]; [7]): 0
- Blackgrass plant response rating (blackgrass [2]; [8]): 3
- Blackgrass plant response rating (blackgrass [2]; [9]): 3
- Blackgrass plant response rating (blackgrass [2]; [10]): 0
- Plant response rating, Blackgrass (blackgrass [2]; [11]): 5
- Blackgrass plant response rating (blackgrass [2]; [12]): 5
- Plant response rating, Wheat (winter) (winter wheat [3]; Rate 1000 g/ha, 0 is no effect and 100 is complete control): 50
- Plant response rating, Wheat (winter) (winter wheat [3]; Rate 500 g/ha, 0 no effect, 100 complete control): 40
- Wheat (winter) plant response rating (winter wheat [3]; Rate 250 g/ha, 0 to 100 scale where 0 is no effect and 100 is complete control): 30
- Velvetleaf plant response rating (velvetleaf; [6]): 0
- Velvetleaf plant response rating (0 to 10 scale) (velvetleaf; [7]): 0
- Velvetleaf plant response rating (velvetleaf; [8]): 0
- Velvetleaf plant response rating (velvetleaf; [9]): 3
- Plant response rating, Velvetleaf (velvetleaf; [11]): 0
- Velvetleaf plant response rating (velvetleaf; [12]): 2
- Soybean plant response rating (soybean; [5]): 3
- Soybean plant response rating (soybean; [6]): 0
- Soybean plant response rating (0 to 10 scale) (soybean; [7]): 0
- Soybean plant response rating (soybean; [8]): 0
- Soybean plant response rating (soybean; [9]): 0
- Soybean plant response rating (soybean; [10]): 2
- Plant response rating, Soybean (soybean; [11]): 3
- Soybean plant response rating (soybean; [12]): 5
- I. Ryegrass plant response rating (0 to 100 scale) (Italian ryegrass; Rate 250 g/ha): 30
- Plant response rating, I. Ryegrass (Italian ryegrass; Rate 500 g/ha): 65
- Plant response rating, I. Ryegrass (Italian ryegrass; Rate 1000 g/ha): 80
- Bedstraw plant response rating (bedstraw; [5]): 0
- Bedstraw plant response rating (bedstraw; [6]): 0
- Bedstraw plant response rating (0 to 10 scale) (bedstraw; [7]): 0
- Bedstraw plant response rating (bedstraw; [8]): 3
- Bedstraw plant response rating (bedstraw; [9]): 5
- Bedstraw plant response rating (bedstraw; [10]): 0
- Plant response rating, Bedstraw (bedstraw; [11]): 8
- Wild oat plant response rating (0 to 100 scale) (wild oat; Rate 250 g/ha): 30
- Plant response rating, Wild oat (wild oat; Rate 500 g/ha): 40
- Plant response rating, Wild oat (wild oat; Rate 1000 g/ha): 50
- Blackgrass plant response rating (0 to 100 scale) (blackgrass [4]; Rate 250 g/ha): 50
- Plant response rating, Blackgrass (blackgrass [4]; Rate 500 g/ha): 60
- Plant response rating, Blackgrass (blackgrass [4]; Rate 1000 g/ha): 80
- Barley (winter) plant response rating (0 to 100 scale) (winter barley; Rate 250 g/ha): 40
- Plant response rating, Barley (winter) (winter barley; Rate 500 g/ha): 40
- Plant response rating, Barley (winter) (winter barley; Rate 1000 g/ha): 20

SMILES: COCCn1c(=O)on(C(=O)N(c2ccccc2)C(C)C)c1=O [Compound 631]
- Plant response rating, Blackgrass (blackgrass [2]; [13]): 1
- Plant response rating, Blackgrass (blackgrass [2]; [5]): 8
- Blackgrass plant response rating (blackgrass [2]; [14]): 6
- Plant response rating, Blackgrass (blackgrass [2]; Postemergence, Rate 500 g/ha, scale of 0 to 10 where 0 is no effect and 10 is complete control): 9
- Blackgrass plant response rating (blackgrass [2]; [15]): 6
- Blackgrass plant response rating (blackgrass [2]; [16]): 7
- Plant response rating, Blackgrass (blackgrass [2]; [17]): 9
- Plant response rating, Blackgrass (blackgrass [2]; [18]): 10
- Plant response rating, Velvetleaf (velvetleaf; [13]): 4
- Plant response rating, Velvetleaf (velvetleaf; [5]): 4
- Velvetleaf plant response rating (velvetleaf; [14]): 7
- Velvetleaf plant response rating (velvetleaf; [15]): 6
- Velvetleaf plant response rating (velvetleaf; [16]): 7
- Plant response rating, Velvetleaf (velvetleaf; [17]): 7
- Plant response rating, Velvetleaf (velvetleaf; [18]): 9
- Plant response rating, Soybean (soybean; [13]): 5
- Plant response rating, Soybean (soybean; [5]): 5
- Soybean plant response rating (soybean; [14]): 8
- Soybean plant response rating (soybean; [15]): 2
- Soybean plant response rating (soybean; [16]): 5
- Plant response rating, Soybean (soybean; [17]): 9
- Plant response rating, Soybean (soybean; [18]): 9
- Bedstraw plant response rating (bedstraw; [15]): 0
- Bedstraw plant response rating (bedstraw; [16]): 0
- Plant response rating, Bedstraw (bedstraw; [17]): 0
